Data set [1] relates to spinal cord neurons. In words: H202-induced apoptosis (condensed and fragmented nuclei) in cultured spinal cord neurons. Type of data set: cell-based. The protocol: Central to the therapeutic intervention of spinal cord injury is the belief that spinal cord neurons undergo apoptosis and possibly necrosis under oxidative stress. […] In contrast, control neurons show predominantly diffuse nuclear staining. […] This percentage increased to ˜58% for 500 μM H2O2. […] In contrast, immunoreactivity to cytochrome C oxidase (COX), a marker in the inner mitochondrial membrane remained independent of the mitochondrial insults by H202. The differential staining between cytochrome C and COX affords a secondary method to assess whether a given neuron has undergone mitochondrial permeability transition (MPT).

Data set [2] has as its system cultured neonatal rat ventricular myocytes. In words: H202-induced depolarization of mitochondrial membrane potential (TMRE) in cardiac myocytes. The conditions noted are these: 50 μM H202; for onset of H202-induced depolarization and loss of TMRE fluorescence: pretreatment 50 μM or 100 μM for 30 minutes. It counts as cell-based.
Procedure: TMRE is a lipophilic cation that partitions selectively into the negatively charged mitochondria. Neonatal cultured myocytes (6 days in culture) were loaded with 10 nM TMRE for 60 minutes at 37° C. […] As a control, myocytes were not pretreated with any drug. TMRE was excited at 555 nm and fluorescence emission was detected at 590 nm. Fluorescence images were taken every 2 minutes. At the arrow (FIG. 3), myocytes were subjected to oxidative stress by adding 50 μM H202. Plots were normalized to baseline, and are shown as F/F0, where F is the emitted fluorescence at any given time and F0 is the baseline fluorescence before addition of H202. […] The traces were drawn from the mean values of 7-10 experiments.
TMRE was used as an indicator of mitochondrial membrane potential. The myocytes were pretreated with 50 μM Mito GSH for 30 minutes and then washed to remove the antioxidant from the solution in which myocytes were suspended. In control, myocytes were not pretreated with any drug. TMRE was excited at 555 run and fluorescence emission was detected at 590 nm. Fluorescence images were taken every 2 minutes to avoid photobleaching and phototoxicity. Myocytes were subjected to oxidative stress by adding 50 μM H202.
Data set [3] concerns brain striatal neurons. In words: NMDA-induced depolarization of mitochondrial membrane (TMRE) in striatal neurons. Type of data set: cell-based. The conditions noted are these: pretreatment 50 μm for 30 minutes; NMDA (100 μM).
Procedure: The effects of mitochondrial-targeted antioxidants upon onset of NMDA (100 μM) induced depolarization of mitochondrial membrane of brain striatal neurons are summarized in Table 1.
Tetramethylrhodamine methyl ester (TMRE) was used as an indicator of mitochondrial membrane potential. […] Control neurons were not pretreated with any drug.
The test system of data set [4] is Rat heart mitochondria. As to conditions: pretreatment 5 mM for 30 minutes, 5 μM rotenone and 100 μM t-BuOOH.
Procedure: Mitochondrial membrane potential was measured by safranine. Safranine is a positively charged dye that accumulates in mitochondria on establishment of an electrical potential across the mitochondrial inner membrane. However, its fluorescence is quenched by its accumulation in mitochondria in response to mitochondrial membrane potential. Rat heart mitochondria (0.2 mg protein/200 μl) were transferred to a well containing 0.3 ml of 150 mM KCl, 5 mM HEPES, 15, μM safranine, 5 mM succinate buffer, 5 μM rotenone and 100 μM t-BuOOH. The mitochondria were placed in a multiplate reader.
Fluorescence measurements were made with excitation and emission wavelengths of 485 and 585 nm, respectively.
The subject of data set [5] is rat heart. In words: Post-ischemic recovery in Langendorff perfused rat heart. Set-up: species or system Sprague-Dawley rat. The conditions noted are these: 50 μM for 10 minutes prior to ischemia. The protocol: Following an equilibration period of approximately 25 minutes, global normothermic ischemia was imposed for 25 minutes, followed by reperfusion for 30 minutes.

“Also recorded” adds a separate entry of the source. Read-outs that look alike come from different tables or passages of the source.

For the compound `C=CC(O)CC(=O)O` (centres unmarked) [Compound 3-HP, 3-hydroxy-4-pentenoate], in data set [1] (3-HP depletion of mitochondrial glutathione prior to 250 μM H202 treatment), the “percentage of cells showing condensed and fragmented nuclei” value stood at 70%.
`OO` [Compound H202, hydrogen peroxide]: the results for the “neurons with condensed and fragmented nuclei” value in data set [1] (250 μM H202) and in data set [1] (500 μM H2O2) were around 42% and around 58%, respectively.
Turning to `N[C@@H](CCC(=O)N[C@@H](CS)C(=O)NCC(=O)O)C(=O)O` [Glutathione, L-γ-glutamyl-L-cysteinylglycine, reference compound], the “time for onset of H202-induced depolarization” value in data set [2] (pretreatment 100 μM non-targeted glutathione) was “did not significantly increase the time for onset of H202-induced depolarization”.
For `C[N+](C)(C)CCOC(=O)CNC(=O)[C@H](CS)NC(=O)CC[C@H](N)C(=O)O.[Cl-]` [Mito GSH, Glutathione choline ester chloride], the “time TMRE fluorescence persisted after H202 treatment” value in data set [2] (pretreatment 50 μM for 30 minutes) was 50 min. Also, the “onset of H202-induced depolarization and loss of TMRE fluorescence” value in data set [2] is “delayed onset of H202-induced depolarization and loss of TMRE fluorescence; also recorded: significantly enhanced the time for onset of H202-induced depolarization; also recorded: delay the onset of H202-induced depolarization”. Further, the “time for onset of H202-induced depolarization” value in data set [2] (pretreatment 100 μM) was found to be 53 ± 3.6 min. Also, the “Time of Onset of Depolarization” value in data set [3] is 17.5 ± 2.1 min.
For `CC(=O)N[C@@H](CS)C(=O)OCC[N+](C)(C)C` [Mito NAC, N,S-acetyl-L-cysteine choline ester], the “onset of H202-induced depolarization and loss of TMRE fluorescence” value was “delayed onset of H202-induced depolarization and loss of fluorescence” in data set [2]; “delay the onset of H202-induced depolarization” in data set [2] (listed as mito NAC). For the same compound, in data set [3], the “Time of Onset of Depolarization” value came to 20.5 ± 3.6 min.
Regarding `CC(=O)N[C@@H](CS)C(=O)OCC[N+](C)(C)C` [N-acetyl cysteine choline ester, N-acetyl-L-cysteine choline ester], the “release of intramitochondrial safranine (depolarization of mitochondrial membrane potential)” value in data set [4] (listed as NAC CE) was “minimize the depolarization of mitochondrial membrane potential”.
As to `CC(=O)N[C@@H](CS)C(=O)O` [N-acetyl cysteine, N-acetyl-L-cysteine], in data set [5], the “onset of ischemic contracture” value is reported as “appeared to delay the onset of ischemic contracture”. Besides, the “Overall recovery of left-ventricular developed pressure” value in data set [5] (25 minutes ischemia, 30 minutes reperfusion) amounted to 15.7%. Moreover, in data set [3], the “Time of Onset of Depolarization” value stood at 10.5 ± 1.9 min.
For the compound `C[N+](C)(C)CCOC(=O)[C@@H](N)CS.[Cl-]` [cysteine choline ester, [2-(2-Amino-3-mercapto-L-propionyloxy)ethyl]trimethylammonium chloride], the “release of intramitochondrial safranine (depolarization of mitochondrial membrane potential)” value was “diminished the release of intramitochondrial safaranine” in data set [4] and “minimize the depolarization of mitochondrial membrane potential” in data set [4] (listed as CYS CE).

The values are drawn from patent US20110257107A1, “Compounds for Delivering Amino Acids or Peptides with Antioxidant Activity into Mitochondria” (University of Rochester, priority 2006, published 2011).
